What follows are compounds tested on HCV 1b genotype (assay: HCV Replicon assay (HCV-neo replicon cells), 1b genotype). Details: Hepatitis C virus; HCV 1b genotype replicon; value given as range class; read-out: 1b EC50 (in μM or range).
Type: cell-based
Outline: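 HCV-neo replicon cells, wild-type and carrying NS5A mutations, used to measure compound inhibition of replication; luciferase reporter replicon formats also applied.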

| SMILES | EC50 [µM] |
| --- | --- |
| COC(=O)N[C@H](C(=O)N1CCC[C@H]1c1nc(CCc2ccc(CCc3cnc([C@@H]4CCCN4C(=O)[C@@H](NC(=O)OC)[C@@H](C)OC)[nH]3)cc2)c[nH]1)[C@@H](C)OC [Example 44, methyl ((1S,2R)-2-methoxy-1-(((2S)-2-(4-(2-(4-(2-(2-((2S)-1-(N-(methoxycarbonyl)-O-methyl-L-threonyl)-2-pyrrolidinyl)-1H-imidazol-4-yl)ethyl)phenyl)ethyl)-1H-imidazol-2-yl)-1-pyrrolidinyl)carbonyl)propyl)carbamate] | 0.01 to 10 |
| COC(=O)N[C@@H](C(=O)N1CCC[C@H]1c1ncc(C#Cc2ccc(-c3cnc([C@@H]4CCCN4C(=O)[C@H](NC(=O)OC)c4ccccc4)[nH]3)cc2)[nH]1)c1ccccc1 [Example M1, Methyl ((1R)-2-((2S)-2-(4-(4-((2-((2S)-1-((2R)-2-((methoxycarbonyl)amino)-2-phenylacetyl)-2-pyrrolidinyl)-1H-imidazol-4-yl)ethynyl)phenyl)-1H-imidazol-2-yl)-1-pyrrolidinyl)-2-oxo-1-phenylethyl)carbamate] | < 0.001 |
| COC(=O)N[C@@H](C(=O)N1CCC[C@H]1c1ncc(CCc2ccc(-c3cnc([C@@H]4CCCN4C(=O)[C@H](NC(=O)OC)c4ccccc4)[nH]3)cc2)[nH]1)c1ccccc1 [Example M2, Methyl ((1R)-2-((2S)-2-(4-(4-(2-(2-((2S)-1-((2R)-2-((methoxycarbonyl)amino)-2-phenylacetyl)-2-pyrrolidinyl)-1H-imidazol-4-yl)ethyl)phenyl)-1H-imidazol-2-yl)-1-pyrrolidinyl)-2-oxo-1-phenylethyl)carbamate] | < 0.001 |
| CN(C)[C@@H](C(=O)N1CCC[C@H]1c1ncc(CCc2ccc(-c3cnc([C@@H]4CCCN4C(=O)[C@@H](c4ccccc4)N(C)C)[nH]3)cc2)[nH]1)c1ccccc1 [Example M3, [(1R)-2-((2S)-2-(4-(4-(2-(2-((2S)-1-((2R)-2-(Dimethylamino)-2-phenylacetyl)-2-pyrrolidinyl)-1H-imidazol-4-yl)ethyl)phenyl)-1H-imidazol-2-yl)-1-pyrrolidinyl)-N,N-dimethyl-2-oxo-1-phenylethanamine]] | 0.001 to 0.01 |
| COC(=O)N[C@H](C(=O)N1CCC[C@H]1c1ncc(C#Cc2ccc(C#Cc3cnc([C@@H]4CCCN4C(=O)[C@@H](NC(=O)OC)C(C)C)[nH]3)cc2)[nH]1)C(C)C [Example M4, Methyl((1S)-1-(((2S)-2-(4-((4-((2-((2S)-1-((2S)-2-((methoxycarbonyl)amino)-3-methylbutanoyl)-2-pyrrolidinyl)-1H-imidazol-4-yl)ethynyl)phenyl)ethynyl)-1H-imidazol-2-yl)-1-pyrrolidinyl)carbonyl)-2-methylpropyl)carbamate] | < 0.001 |
| COC(=O)N[C@H](C(=O)N1CCC[C@H]1c1nc(C#Cc2ccc(C#Cc3c[nH]c([C@@H]4CCCN4C(=O)[C@@H](NC(=O)OC)[C@@H](C)OC)n3)cc2)c[nH]1)[C@@H](C)OC [Example M5, Methyl ((1S,2R)-2-methoxy-1-(((2S)-2-(4-((4-((2-((2S)-1-(N-(methoxycarbonyl)-O-methyl-L-threonyl)-2-pyrrolidinyl)-1H-imidazol-4-yl)ethynyl)phenyl)ethynyl)-1H-imidazol-2-yl)-1-pyrrolidinyl)carbonyl)propyl)carbamate] | < 0.001 |
| COC(=O)N[C@@H](C)C(=O)N1CCC[C@H]1c1nc(C#Cc2ccc(C#Cc3c[nH]c([C@@H]4CCCN4C(=O)[C@H](C)NC(=O)OC)n3)cc2)c[nH]1 [Example M6, Methyl ((1S)-2-((2S)-2-(4-((4-((2-((2S)-1-(N-(methoxycarbonyl)-L-alanyl)-2-pyrrolidinyl)-1H-imidazol-4-yl)ethynyl)phenyl)ethynyl)-1H-imidazol-2-yl)-1-pyrrolidinyl)-1-methyl-2-oxoethyl)carbamate] | 0.001 to 0.01 |
| COCC[C@H](NC(=O)OC)C(=O)N1CCC[C@H]1c1nc(C#Cc2ccc(C#Cc3c[nH]c([C@@H]4CCCN4C(=O)[C@H](CCOC)NC(=O)OC)n3)cc2)c[nH]1 [Example M7, Methyl ((1S)-3-methoxy-1-(((2S)-2-(4-((4-((2-((2S)-1-(N-(methoxycarbonyl)-O-methyl-L-homoseryl)-2-pyrrolidinyl)-1H-imidazol-4-yl)ethynyl)phenyl)ethynyl)-1H-imidazol-2-yl)-1-pyrrolidinyl)carbonyl)propyl)carbamate] | < 0.001 |
